Results published in ChEMBL document CHEMBL3739404, “Arylsulfonamide derivatives of (aryloxy)ethylpiperidines as selective 5-HT7receptor antagonists and their psychotropic properties” (Medchemcomm, 2015).
The source made the active and inactive calls. The calls are words filed in the database; no cut-off is given here.

How the values were obtained:
Mus musculus [1] = experiment: Antidepressant-like activity in albino Swiss mouse assessed as reduction in immobility time at 10 mg/kg, ip dosed 30 mins before test by forced swim test; assay type: functional; set-up: scale not given: the % may be the effect or the level left
Mus musculus [2] = experiment: Toxicity in albino Swiss mouse assessed as effect on spontaneous locomotor activity at 10 mg/kg, ip dosed 30 mins before test measured for 2 to 6 mins by M3 multichannel activity test; assay type: organism-based; conditions: in vivo
Mus musculus [3] = experiment: Anxiolytic-like activity in albino Swiss mouse assessed as increase in number of punished crossings at 1 mg/kg, ip dosed 30 mins before test by four plate test; assay type: functional, organism-based
Mus musculus [4] = experiment: Toxicity in albino Swiss mouse assessed as effect on spontaneous locomotor activity at 1 mg/kg, ip dosed 30 mins before test measured for 1 min 15 secs by M3 multichannel activity test; assay type: organism-based; conditions: in vivo
[5] = biological target: T1, 5-hydroxytryptamine receptor 7 (Homo sapiens, UniProt P34969); experiment: Displacement of [3H]-5-carboxyamidotryptamine from human serotonin 5-HT7B receptor expressed in HEK293 cells after 1 hr by microplate reader based assay; assay type: cell-based
T1 sequence (P34969 whole entry): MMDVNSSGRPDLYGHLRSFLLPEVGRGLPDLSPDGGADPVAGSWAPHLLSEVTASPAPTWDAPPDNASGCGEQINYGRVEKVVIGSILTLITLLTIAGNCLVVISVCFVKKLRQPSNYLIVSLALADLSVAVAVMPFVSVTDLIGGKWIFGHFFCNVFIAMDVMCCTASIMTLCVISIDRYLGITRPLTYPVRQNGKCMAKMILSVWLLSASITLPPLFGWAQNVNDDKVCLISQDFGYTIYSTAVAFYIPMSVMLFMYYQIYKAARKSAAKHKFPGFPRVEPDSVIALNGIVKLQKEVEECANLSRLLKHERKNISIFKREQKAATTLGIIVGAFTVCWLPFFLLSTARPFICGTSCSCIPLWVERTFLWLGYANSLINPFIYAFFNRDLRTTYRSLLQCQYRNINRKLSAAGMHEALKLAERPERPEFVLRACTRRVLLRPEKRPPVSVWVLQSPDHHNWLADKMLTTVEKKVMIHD

[6] = biological target: T2, 5-hydroxytryptamine receptor 1A (Homo sapiens, UniProt P08908); experiment: Displacement of [3H]-8-OH-DPAT from human serotonin 5-HT1A receptor expressed in HEK293 cells after 1 hr by microplate reader based assay; assay type: cell-based
T2 sequence (P08908 whole entry): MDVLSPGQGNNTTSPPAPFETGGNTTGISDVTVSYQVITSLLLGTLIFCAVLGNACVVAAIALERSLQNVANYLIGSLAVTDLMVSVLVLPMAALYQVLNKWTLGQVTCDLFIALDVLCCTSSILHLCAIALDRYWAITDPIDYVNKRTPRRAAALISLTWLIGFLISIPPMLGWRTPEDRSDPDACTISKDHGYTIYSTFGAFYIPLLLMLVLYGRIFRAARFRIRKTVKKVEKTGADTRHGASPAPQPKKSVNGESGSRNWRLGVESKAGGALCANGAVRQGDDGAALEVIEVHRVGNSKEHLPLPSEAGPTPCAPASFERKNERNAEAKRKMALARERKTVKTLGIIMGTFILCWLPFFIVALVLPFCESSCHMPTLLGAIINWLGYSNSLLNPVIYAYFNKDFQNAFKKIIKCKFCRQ

HEK293 = experiment: Selectivity ratio of Ki for human 5-HT1A receptor to Ki for human 5-HT7B receptor expressed in HEK293 cells; assay type: cell-based
[7] = biological target: T1, 5-hydroxytryptamine receptor 7; experiment: Antagonist activity at human serotonin 5-HT7B receptor expressed in CHO cells assessed as inhibition of serotonin-induced cAMP production at 1 uM after 30 mins by HTRF assay relative to control; assay type: functional, cell-based
[8] = biological target: 5-hydroxytryptamine receptor 6 (Homo sapiens, UniProt P50406); experiment: Displacement of [3H]-LSD from human serotonin 5-HT6 receptor expressed in HEK293 cells after 1 hr by microplate reader based assay; assay type: cell-based
Chain of 5-hydroxytryptamine receptor 6 (P50406 whole entry): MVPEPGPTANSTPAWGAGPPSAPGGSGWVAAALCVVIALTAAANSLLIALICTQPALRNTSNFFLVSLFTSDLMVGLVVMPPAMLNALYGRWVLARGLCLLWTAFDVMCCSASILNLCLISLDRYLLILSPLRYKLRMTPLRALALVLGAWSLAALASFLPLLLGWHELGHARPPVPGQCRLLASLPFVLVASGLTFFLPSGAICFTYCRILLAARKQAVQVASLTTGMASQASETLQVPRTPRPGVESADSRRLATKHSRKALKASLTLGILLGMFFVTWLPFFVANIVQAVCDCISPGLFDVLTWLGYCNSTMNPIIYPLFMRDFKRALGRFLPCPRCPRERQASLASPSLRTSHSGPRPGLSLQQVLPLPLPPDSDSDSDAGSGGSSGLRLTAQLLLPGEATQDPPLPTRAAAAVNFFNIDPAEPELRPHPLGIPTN

D(2) dopamine receptor = D(2) dopamine receptor (Homo sapiens, UniProt P14416); experiment: Displacement of [3H]-Raclopride from human dopamine D2L receptor expressed in HEK293 cells after 1 hr by microplate reader based assay; assay type: cell-based
Chain of D(2) dopamine receptor (P14416 whole entry): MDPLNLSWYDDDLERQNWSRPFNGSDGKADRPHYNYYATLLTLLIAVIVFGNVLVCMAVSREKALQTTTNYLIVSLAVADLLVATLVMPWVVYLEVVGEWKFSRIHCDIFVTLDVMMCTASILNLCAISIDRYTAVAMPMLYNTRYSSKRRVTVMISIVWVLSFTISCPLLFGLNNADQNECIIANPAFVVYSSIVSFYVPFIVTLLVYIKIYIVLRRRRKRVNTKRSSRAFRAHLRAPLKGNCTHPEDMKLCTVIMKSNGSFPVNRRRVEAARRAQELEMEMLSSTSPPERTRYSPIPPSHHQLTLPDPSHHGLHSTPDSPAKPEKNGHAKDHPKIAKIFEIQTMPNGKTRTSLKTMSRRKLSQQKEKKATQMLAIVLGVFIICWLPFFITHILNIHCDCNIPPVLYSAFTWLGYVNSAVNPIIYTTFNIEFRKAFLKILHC

[9] = biological target: T3, Adrenergic receptor alpha-1 (Rattus norvegicus, UniProt P15823+P23944+P43140); experiment: Displacement of [3H]-Prazosin from alpha-1 adrenergic receptor in rat cerebral cortex after 1 hr by microplate reader based assay; assay type: tissue-based
T3 sequence (P15823 whole entry): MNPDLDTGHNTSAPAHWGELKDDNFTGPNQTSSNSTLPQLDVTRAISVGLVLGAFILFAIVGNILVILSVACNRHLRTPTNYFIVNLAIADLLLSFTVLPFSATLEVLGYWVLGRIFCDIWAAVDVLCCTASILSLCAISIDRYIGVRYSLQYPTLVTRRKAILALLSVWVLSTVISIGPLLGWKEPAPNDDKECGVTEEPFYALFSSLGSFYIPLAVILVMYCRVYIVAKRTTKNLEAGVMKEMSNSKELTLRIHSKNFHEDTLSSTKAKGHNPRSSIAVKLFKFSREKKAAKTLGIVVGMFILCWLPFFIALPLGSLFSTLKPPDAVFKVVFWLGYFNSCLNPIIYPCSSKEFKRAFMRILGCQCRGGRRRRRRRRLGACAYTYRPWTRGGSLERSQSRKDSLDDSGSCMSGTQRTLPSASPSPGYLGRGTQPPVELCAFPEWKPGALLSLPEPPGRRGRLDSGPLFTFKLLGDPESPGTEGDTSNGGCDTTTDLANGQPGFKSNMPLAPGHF
T3 sequence (P23944 whole entry): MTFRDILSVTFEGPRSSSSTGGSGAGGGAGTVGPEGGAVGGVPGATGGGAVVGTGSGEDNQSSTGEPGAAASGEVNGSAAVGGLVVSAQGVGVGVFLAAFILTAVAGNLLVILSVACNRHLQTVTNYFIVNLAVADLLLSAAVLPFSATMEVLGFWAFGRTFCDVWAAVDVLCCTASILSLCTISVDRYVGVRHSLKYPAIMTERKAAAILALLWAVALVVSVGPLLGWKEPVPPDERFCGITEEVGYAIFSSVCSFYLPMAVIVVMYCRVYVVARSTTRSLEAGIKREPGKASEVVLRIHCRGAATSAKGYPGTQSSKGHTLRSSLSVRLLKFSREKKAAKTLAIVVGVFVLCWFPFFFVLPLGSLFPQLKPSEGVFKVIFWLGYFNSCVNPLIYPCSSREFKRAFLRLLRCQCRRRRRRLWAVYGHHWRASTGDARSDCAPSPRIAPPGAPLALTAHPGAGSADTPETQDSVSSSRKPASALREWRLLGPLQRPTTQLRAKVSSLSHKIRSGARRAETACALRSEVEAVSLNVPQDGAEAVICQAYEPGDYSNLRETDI
T3 sequence (P43140 whole entry): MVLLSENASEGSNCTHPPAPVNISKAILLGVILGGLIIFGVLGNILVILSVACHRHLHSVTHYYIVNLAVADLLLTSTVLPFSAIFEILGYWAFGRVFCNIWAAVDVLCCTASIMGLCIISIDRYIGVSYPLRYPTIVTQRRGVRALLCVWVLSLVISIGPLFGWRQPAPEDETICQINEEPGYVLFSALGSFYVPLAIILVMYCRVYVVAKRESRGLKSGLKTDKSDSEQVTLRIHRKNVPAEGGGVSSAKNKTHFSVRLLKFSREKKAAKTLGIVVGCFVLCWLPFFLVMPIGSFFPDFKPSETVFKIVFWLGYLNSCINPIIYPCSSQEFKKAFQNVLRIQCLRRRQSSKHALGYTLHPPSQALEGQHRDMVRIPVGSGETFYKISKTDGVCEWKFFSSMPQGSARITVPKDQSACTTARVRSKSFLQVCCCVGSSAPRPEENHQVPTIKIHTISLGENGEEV

Rattus norvegicus = experiment: Pro-cognitive effect in Sprague-Dawley rat assessed as reduction in PCP-induced memory deficits administered ip 1 hr 15 mins before familiarization phase by novel object recognition test; assay type: functional, organism-based
[10] = biological target: T1, 5-hydroxytryptamine receptor 7; experiment: Antagonist activity at human 5-HT7B receptor expressed in HEK293 cells assessed as inhibition of 5-carboxyamidotryptamine-induced cAMP production after 30 mins by TR-FRET assay; assay type: functional, cell-based
[11] = biological target: T1, 5-hydroxytryptamine receptor 7; experiment: Antagonist activity at human serotonin 5-HT7B receptor expressed in CHO cells assessed as inhibition of serotonin-induced cAMP production after 30 mins by HTRF assay; assay type: functional, cell-based
[12] = biological target: Beta-1 adrenergic receptor (Homo sapiens) (UniProt P08588); experiment: Binding affinity to beta-1 adrenergic receptor (unknown origin) at 1 uM
Chain of Beta-1 adrenergic receptor (Homo sapiens) (P08588 whole entry, looked up): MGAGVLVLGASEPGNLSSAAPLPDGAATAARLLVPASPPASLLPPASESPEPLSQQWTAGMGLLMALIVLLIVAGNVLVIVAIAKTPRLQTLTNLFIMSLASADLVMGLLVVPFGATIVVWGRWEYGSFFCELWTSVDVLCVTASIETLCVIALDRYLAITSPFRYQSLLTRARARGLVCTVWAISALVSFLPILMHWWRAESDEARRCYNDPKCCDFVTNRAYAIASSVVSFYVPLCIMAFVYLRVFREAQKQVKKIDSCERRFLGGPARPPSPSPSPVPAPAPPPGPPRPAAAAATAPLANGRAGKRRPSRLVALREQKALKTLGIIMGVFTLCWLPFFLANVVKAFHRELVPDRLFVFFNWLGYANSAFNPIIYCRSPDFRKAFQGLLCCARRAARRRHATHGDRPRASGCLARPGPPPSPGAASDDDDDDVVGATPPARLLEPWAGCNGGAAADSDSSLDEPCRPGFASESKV

Mus musculus [13] = experiment: Toxicity in albino Swiss mouse assessed as effect on spontaneous locomotor activity at 5 mg/kg, ip dosed 60 mins before test measured for 2 to 6 mins by M3 multichannel activity test; assay type: organism-based; conditions: in vivo
[14] = biological target: T4, Muscarinic acetylcholine receptor M1 (Homo sapiens) (UniProt P11229); experiment: Binding affinity to muscarinic acetylcholine receptor M1 (unknown origin) at 1 uM
T4 sequence (whole entry): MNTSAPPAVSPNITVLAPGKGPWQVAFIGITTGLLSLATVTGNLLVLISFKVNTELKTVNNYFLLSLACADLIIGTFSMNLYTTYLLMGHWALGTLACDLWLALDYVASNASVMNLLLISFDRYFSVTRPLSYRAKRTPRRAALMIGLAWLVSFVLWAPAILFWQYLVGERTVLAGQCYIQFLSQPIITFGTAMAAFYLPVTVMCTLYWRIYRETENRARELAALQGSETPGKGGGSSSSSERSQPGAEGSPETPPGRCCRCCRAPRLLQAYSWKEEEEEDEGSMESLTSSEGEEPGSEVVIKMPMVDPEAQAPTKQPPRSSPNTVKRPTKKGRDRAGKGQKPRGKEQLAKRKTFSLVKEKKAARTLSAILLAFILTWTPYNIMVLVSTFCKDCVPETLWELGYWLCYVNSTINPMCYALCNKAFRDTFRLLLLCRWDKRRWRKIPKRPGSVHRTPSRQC

[15] = biological target: Histamine H1 receptor (Homo sapiens) (UniProt P35367); experiment: Binding affinity to histamine H1 receptor (unknown origin) at 1 uM
Chain of Histamine H1 receptor (Homo sapiens) (P35367 whole entry): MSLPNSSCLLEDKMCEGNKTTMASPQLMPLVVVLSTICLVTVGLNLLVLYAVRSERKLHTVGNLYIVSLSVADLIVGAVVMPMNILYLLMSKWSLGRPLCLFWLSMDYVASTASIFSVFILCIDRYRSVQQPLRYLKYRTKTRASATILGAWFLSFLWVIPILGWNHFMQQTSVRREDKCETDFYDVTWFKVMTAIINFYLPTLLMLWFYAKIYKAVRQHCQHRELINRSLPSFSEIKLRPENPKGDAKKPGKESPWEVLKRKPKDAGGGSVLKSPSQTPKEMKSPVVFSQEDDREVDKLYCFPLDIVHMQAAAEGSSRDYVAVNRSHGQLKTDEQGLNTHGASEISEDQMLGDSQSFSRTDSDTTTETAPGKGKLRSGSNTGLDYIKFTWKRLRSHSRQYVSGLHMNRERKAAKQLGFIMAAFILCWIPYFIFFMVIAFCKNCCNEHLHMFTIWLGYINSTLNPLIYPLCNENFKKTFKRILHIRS

Mus musculus [16] = experiment: Toxicity in ip dosed albino Swiss mouse assessed as effect on spontaneous locomotor activity dosed 60 mins before test measured for 1 min 15 secs by M3 multichannel activity test; assay type: organism-based; conditions: in vivo
Mus musculus [17] = experiment: Antidepressant-like activity in albino Swiss mouse assessed as reduction in immobility time at 10 mg/kg, ip dosed 60 mins before test by forced swim test; assay type: functional
Mus musculus [18] = experiment: Anxiolytic-like activity in albino Swiss mouse assessed as increase in number of punished crossings at 1.25 mg/kg, ip dosed 60 mins before test by four plate test; assay type: functional
Mus musculus [19] = experiment: Toxicity in albino Swiss mouse assessed as effect on spontaneous locomotor activity at 2.5 mg/kg, ip dosed 60 mins before test measured for 2 to 6 mins by M3 multichannel activity test; assay type: organism-based; conditions: in vivo
Mus musculus [20] = experiment: Toxicity in albino Swiss mouse assessed as effect on spontaneous locomotor activity at 1.25 mg/kg, ip dosed 60 mins before test measured for 1 min 15 secs by M3 multichannel activity test; assay type: organism-based; conditions: in vivo

| SMILES | Ki [5] [nM] | Ki [6] [nM] | Ratio Ki (HEK293) | inhibition [7] [%] | Ki [8] [nM] | Ki (D(2) dopamine receptor) [nM] | Ki [9] [nM] | Activity (Rattus norvegicus) | other results |
| --- | --- | --- | --- | --- | --- | --- | --- | --- | --- |
| CC1CCN(CC[C@H]2CCCN2S(=O)(=O)c2cccc(O)c2)CC1 |  |  |  |  |  |  |  |  | Activity (Mus musculus [1]): 33%; Activity (Mus musculus [2]): Non-toxic; Activity (Mus musculus [3]): Active; Activity (Mus musculus [4]): Non-toxic |
| O=S(=O)(NC1CCN(CCOc2ccccc2-c2ccccc2)CC1)c1cccc(Cl)c1 | 6 | 234 | 33 | 95 | 276 | 85 | 2019 | Dose-dependent effect |  |
| CC(C)c1ccccc1OCCN1CCC(NS(=O)(=O)c2cnn(C)c2)CC1 | 19 | 616 | 32 | 85 | 641 | 140 | 389 |  |  |
| CC(C)c1ccccc1OCCN1CCC(NS(=O)(=O)c2ccccc2F)CC1 |  |  |  |  | 240 | 51 | 629 | Dose-dependent effect | Kb [10]: 12 nM; Kb [11]: 1 nM; Activity [12]: < 10%; Activity (Mus musculus [13]): Non-toxic; Activity [14]: < 10%; Activity [15]: < 74%; Activity (Mus musculus [16]): Non-toxic |
| O=S(=O)(NC1CCN(CCOc2ccccc2-c2ccccc2)CC1)c1ccc(F)c(F)c1 |  |  | 45 |  |  |  | 2541 |  |  |
| CC(C)c1ccccc1OCCN1CCC(NS(=O)(=O)c2cccc3ncccc23)CC1 | 7 | 232 | 33 | 96 | 233 | 104 | 712 | Dose-dependent effect |  |
| CC(C)c1ccccc1OCCN1CCC(NS(=O)(=O)c2cc(F)ccc2F)CC1 | 8 | 208 | 26 | 84 | 324 | 147 | 589 |  | Activity (Mus musculus [17]): Active |
| CC(C)c1ccccc1OCCN1CCC(NS(=O)(=O)c2cccc(F)c2)CC1 | 9 | 356 |  |  | 471 | 102 |  | Dose-dependent effect | Kb [10]: 26 nM; Activity (Mus musculus [18]): 75%; Activity [12]: < 10%; Activity (Mus musculus [19]): Non-toxic; Activity [14]: < 10%; Activity [15]: < 74%; Activity (Mus musculus [20]): Non-toxic |
